Patent US7465805B2, “Isoxazoline derivatives and their use as herbicides” (Syngenta Limited, priority 2004, dated 2008)

Columns and labels:
[1] = tested on: Monocotyledonous and dicotyledonous test plants; test: Herbicidal action, application pre-emergence (Example B1); assay type: in vivo; parameters: key: 10=total damage to plant; 0=no damage to plant; settings: 1000 g/ha, scale 10=total damage to plant, 0=no damage to plant, evaluated after 9 or 13 days
Method: Monocotyledonous and dicotyledonous test plants were sown in sterilised standard soil in seed trays each having 96 cells. After one day (pre-emergence) or after 8 to 9 days cultivation (post-emergence) under controlled conditions in a climatic chamber (cultivation at 17/23° C.; 13 hours light; 50-60% humidity; after application at 19/24° C.), the plants were treated with an aqueous spray solution of 1000 mg/l of the active ingredient used (including 10% DMSO as solvent). The plants were grown on in the climatic chamber until the test was evaluated (10=total damage to plant, 0=no damage to plant) after 9 or 13 days.

maize (Marista) = test: Pre-emergent safening test on maize (Example E1); assay type: in vivo; settings: Comp. 1.01 WP 25% AW/W alone, evaluated after 14 days
Method: The test plants were sown in seed trays under greenhouse conditions. A standard earth was used as the culture substrate. In a pre-emergent stage, the herbicides were applied both by themselves and in a mixture with safeners to the soil surface. The application was carried out with an aqueous suspension of the test substances, prepared from a 25% wettable powder (Example F3, b according to WO 97/34485) or from a suspension concentrate (Example F8 according to WO 97/34485), to achieve a field equivalent of 200 1/ha. The tests were evaluated after 14 days (100%=plants completely dead; 0%=no phytotoxic action on the plants).

With CC1(C)CC(S(=N)(=O)C(Cl)c2c(F)cccc2F)=NO1 (mixture of isomers) [1.02] the “Herbicidal action on Agrostis (damage rating)” value (from here on “Herbicidal action on Agrostis”) [1] was 10, the “Herbicidal action on Digitaria (damage rating)” value (shortened to “Herbicidal action on Digitaria”) [1] was 10 and the “Herbicidal action on Poa (damage rating)” value [1] was 10. The “Herbicidal action on Setaria (damage rating)” value (“Herbicidal action on Setaria” for short) [1] was 10.

For CC(Cl)OC(=O)N=S(=O)(Cc1c(F)cccc1F)C1=NOC(C)(C)C1 (mixture of isomers) [1.17], the “Herbicidal action on Agrostis” value [1] was 10, the “Herbicidal action on Digitaria” value [1] was 8 and the “Herbicidal action on Poa (damage rating)” value [1] was 10. The “Herbicidal action on Setaria” value [1] was 8.

For CC1(C)CC(S(=N)(=O)C(F)c2ccccc2OC(F)(F)F)=NO1 (mixture of isomers) [1.56], the “Herbicidal action on Agrostis” value [1] was 10, the “Herbicidal action on Digitaria” value [1] was 9 and the “Herbicidal action on Poa (damage rating)” value [1] was 10. For the same molecule, the “Herbicidal action on Setaria” value [1] was 8.

With CC1(C)CC(S(=O)(Cc2c(F)cccc2F)=NC(=O)c2ccc(Cl)cc2)=NO1 (centres unmarked) [1.03] the “Herbicidal action on Agrostis” value [1] was 7, the “Herbicidal action on Digitaria” value [1] was 8 and the “Herbicidal action on Poa (damage rating)” value [1] was 10. For the same molecule, the “Herbicidal action on Setaria” value [1] was 8 and the melting point was 154 to 156 °C.

With CC1(C)CC(S(=O)(Cc2c(F)cccc2F)=NC(=O)C(F)(F)F)=NO1 (centres unmarked) [1.04, 3-{2,6-difluoro-phenylmethane(N-trifluoromethyl-carbonyl)sulfoximinyl)-5,5-dimethyl-4,5-dihydroisoxazole] the “Herbicidal action on Agrostis” value [1] was 10, the “Herbicidal action on Digitaria” value [1] was 10 and the “Herbicidal action on Poa (damage rating)” value [1] was 10. For the same molecule, the “Herbicidal action on Setaria” value [1] was 10 and the melting point was 143 to 144 °C.

With CC1(C)CC(S(=O)(=NC(=O)C(F)(F)F)C(Cl)c2c(F)cccc2F)=NO1 (centres unmarked) [1.05] the “Herbicidal action on Agrostis” value [1] was 10, the “Herbicidal action on Digitaria” value [1] was 9 and the “Herbicidal action on Poa (damage rating)” value [1] was 10. For the same molecule, the “Herbicidal action on Setaria” value [1] was 9.

With CC(C)(C)OC(=O)N=S(=O)(Cc1c(F)cccc1F)C1=NOC(C)(C)C1 (centres unmarked) [1.06] the “Herbicidal action on Agrostis” value [1] was 9, the “Herbicidal action on Digitaria” value [1] was 7 and the “Herbicidal action on Poa (damage rating)” value [1] was 6. The “Herbicidal action on Setaria” value [1] was 10.

In the case of CC(=O)N=S(=O)(Cc1c(F)cccc1F)C1=NOC(C)(C)C1 (centres unmarked) [1.07], the “Herbicidal action on Agrostis” value [1] is reported as 10, the “Herbicidal action on Digitaria” value [1] is reported as 9 and the “Herbicidal action on Poa (damage rating)” value [1] is reported as 10. The “Herbicidal action on Setaria” value [1] was 9.

With CN=S(=O)(Cc1c(F)cccc1F)C1=NOC(C)(C)C1 (centres unmarked) [1.08, 3-{2,6-difluoro-phenylmethane(N-methyl)sulfoximinyl)-5,5-dimethyl-4,5-dihydroisoxazole] the “Herbicidal action on Agrostis” value [1] was 10, the “Herbicidal action on Digitaria” value [1] was 7 and the “Herbicidal action on Poa (damage rating)” value [1] was 10. The “Herbicidal action on Setaria” value [1] was 9.

With CC1(C)CC(S(=O)(Cc2c(F)cccc2F)=NC=O)=NO1 (centres unmarked) [1.13] the “Herbicidal action on Agrostis” value [1] was 10, the “Herbicidal action on Digitaria” value [1] was 9 and the “Herbicidal action on Poa (damage rating)” value [1] was 10. The “Herbicidal action on Setaria” value [1] was 9.

In the case of CC1(C)CC(S(=O)(Cc2c(F)cccc2F)=NS(=O)(=O)C(F)(F)F)=NO1 (centres unmarked) [1.14, 3-{2,6-difluoro-phenylmethane(N-trifluoromethylsulphonyl)-sulfoximinyl)-5,5-dimethyl-4,5-dihydroisoxazole], the “Herbicidal action on Agrostis” value [1] is reported as 10, the “Herbicidal action on Digitaria” value [1] is reported as 7 and the “Herbicidal action on Poa (damage rating)” value [1] is reported as 10. For the same molecule, the “Herbicidal action on Setaria” value [1] was 0 and the melting point was 108 °C.

With CC1(C)CC(S(=O)(Cc2c(F)cccc2F)=N[N+](=O)[O-])=NO1 (centres unmarked) [1.15] the “Herbicidal action on Agrostis” value [1] was 10, the “Herbicidal action on Digitaria” value [1] was 9 and the “Herbicidal action on Poa (damage rating)” value [1] was 10. The “Herbicidal action on Setaria” value [1] was 8.

In the case of CC(c1c(F)cccc1F)S(=O)(=NC(=O)C(F)(F)F)C1=NOC(C)(C)C1 (centres unmarked) [1.19], the “Herbicidal action on Agrostis” value [1] is reported as 10, the “Herbicidal action on Digitaria” value [1] is reported as 9 and the “Herbicidal action on Poa (damage rating)” value [1] is reported as 6. The “Herbicidal action on Setaria” value [1] was 9.

For CC(c1c(F)cccc1F)S(=O)(=NC(=O)C(F)(F)F)C1=NOC(C)(C)C1 (centres unmarked) [1.20], the “Herbicidal action on Agrostis” value [1] was 9, the “Herbicidal action on Digitaria” value [1] was 8 and the “Herbicidal action on Poa (damage rating)” value [1] was 4. The “Herbicidal action on Setaria” value [1] was 8.

In the case of CC1(C)CC(S(=O)(Cc2c(F)cccc2F)=NC(=O)c2cccnc2Cl)=NO1 (centres unmarked) [1.21], the “Herbicidal action on Agrostis” value [1] is reported as 10, the “Herbicidal action on Digitaria” value [1] is reported as 9 and the “Herbicidal action on Poa (damage rating)” value [1] is reported as 10. For the same molecule, the “Herbicidal action on Setaria” value [1] was 9.

For CC1(C)CC(S(=N)(=O)C(F)(F)c2c(F)cccc2F)=NO1 (centres unmarked) [1.22], the “Herbicidal action on Agrostis” value [1] was 10, the “Herbicidal action on Digitaria” value [1] was 10 and the “Herbicidal action on Poa (damage rating)” value [1] was 10. The “Herbicidal action on Setaria” value [1] was 10.

In the case of CC1(C)CC(S(=N)(=O)Cc2ccccc2OC(F)(F)F)=NO1 (centres unmarked) [1.24], the “Herbicidal action on Agrostis” value [1] is reported as 10, the “Herbicidal action on Digitaria” value [1] is reported as 9 and the “Herbicidal action on Poa (damage rating)” value [1] is reported as 0. For the same molecule, the “Herbicidal action on Setaria” value [1] was 8.

With CC1(C)CC(S(=N)(=O)Cc2ccccc2OC(F)F)=NO1 (centres unmarked) [1.25] the “Herbicidal action on Agrostis” value [1] was 10, the “Herbicidal action on Digitaria” value [1] was 9 and the “Herbicidal action on Poa (damage rating)” value [1] was 10. For the same molecule, the “Herbicidal action on Setaria” value [1] was 8.

In the case of Cc1ccccc1CS(=N)(=O)C1=NOC(C)(C)C1 (centres unmarked) [1.27], the “Herbicidal action on Agrostis” value [1] is reported as 5, the “Herbicidal action on Digitaria” value [1] is reported as 8 and the “Herbicidal action on Poa (damage rating)” value [1] is reported as 0. For the same molecule, the “Herbicidal action on Setaria” value [1] was 5.

In the case of Cc1ccc(F)c(CS(=N)(=O)C2=NOC(C)(C)C2)c1F (centres unmarked) [1.28], the “Herbicidal action on Agrostis” value [1] is reported as 10, the “Herbicidal action on Digitaria” value [1] is reported as 9 and the “Herbicidal action on Poa (damage rating)” value [1] is reported as 10. For the same molecule, the “Herbicidal action on Setaria” value [1] was 8.

In the case of CC1(C)CC(S(=N)(=O)Cc2cccc(F)c2F)=NO1 (centres unmarked) [1.29], the “Herbicidal action on Agrostis” value [1] is reported as 10, the “Herbicidal action on Digitaria” value [1] is reported as 8 and the “Herbicidal action on Poa (damage rating)” value [1] is reported as 10. For the same molecule, the “Herbicidal action on Setaria” value [1] was 6.

In the case of CC1(C)CC(S(=N)(=O)Cc2ccc(F)cc2F)=NO1 (centres unmarked) [1.30], the “Herbicidal action on Agrostis” value [1] is reported as 10, the “Herbicidal action on Digitaria” value [1] is reported as 10 and the “Herbicidal action on Poa (damage rating)” value [1] is reported as 10. For the same molecule, the “Herbicidal action on Setaria” value [1] was 8.

With CC1(C)CC(S(=N)(=O)Cc2ccccc2C(F)(F)F)=NO1 (centres unmarked) [1.31] the “Herbicidal action on Agrostis” value [1] was 10, the “Herbicidal action on Digitaria” value [1] was 8 and the “Herbicidal action on Poa (damage rating)” value [1] was 8. The “Herbicidal action on Setaria” value [1] was 8.

In the case of CC1(C)CC(S(=N)(=O)Cc2c(F)cccc2C(F)(F)F)=NO1 (centres unmarked) [1.32], the “Herbicidal action on Agrostis” value [1] is reported as 10, the “Herbicidal action on Digitaria” value [1] is reported as 10 and the “Herbicidal action on Poa (damage rating)” value [1] is reported as 10. The “Herbicidal action on Setaria” value [1] was 9.

With CC1(C)CC(S(=N)(=O)Cc2cc(F)ccc2F)=NO1 (centres unmarked) [1.34] the “Herbicidal action on Agrostis” value [1] was 10, the “Herbicidal action on Digitaria” value [1] was 9 and the “Herbicidal action on Poa (damage rating)” value [1] was 10. The “Herbicidal action on Setaria” value [1] was 8.

In the case of CC1(C)CC(S(=O)(=NC(=O)c2ccccc2)C(F)c2c(F)cccc2F)=NO1 (centres unmarked) [1.35], the “Herbicidal action on Agrostis” value [1] is reported as 10, the “Herbicidal action on Digitaria” value [1] is reported as 8 and the “Herbicidal action on Poa (damage rating)” value [1] is reported as 10. The “Herbicidal action on Setaria” value [1] was 8.

For CC1(C)CC(S(=O)(Cc2c(F)cccc2F)=NC(=O)c2ccccc2)=NO1 (centres unmarked) [1.36], the “Herbicidal action on Agrostis” value [1] was 10, the “Herbicidal action on Digitaria” value [1] was 5 and the “Herbicidal action on Poa (damage rating)” value [1] was 0. For the same molecule, the “Herbicidal action on Setaria” value [1] was 7.

For CC1(C)CC(S(=N)(=O)Cc2cc(F)cc3c2OCOC3)=NO1 (centres unmarked) [1.48], the “Herbicidal action on Agrostis” value [1] was 0, the “Herbicidal action on Digitaria” value [1] was 8 and the “Herbicidal action on Poa (damage rating)” value [1] was 0. For the same molecule, the “Herbicidal action on Setaria” value [1] was 8.

For Cn1nc(C(F)(F)F)c(CS(=N)(=O)C2=NOC(C)(C)C2)c1Cl (centres unmarked) [2.01], the “Herbicidal action on Agrostis” value [1] was 10, the “Herbicidal action on Digitaria” value [1] was 10 and the “Herbicidal action on Poa (damage rating)” value [1] was 10. For the same molecule, the “Herbicidal action on Setaria” value [1] was 10.

With CC1(C)CC(S(=N)(=O)Cc2c(F)cccc2F)=NO1 (centres unmarked) [Comp. 1.01] the “Herbicidal action on Agrostis” value [1] was 10, the “Herbicidal action on Digitaria” value [1] was 10 and the “Herbicidal action on Poa (damage rating)” value [1] was 10. The “Herbicidal action on Setaria” value [1] was 9, the “phytotoxic action on maize (100%=plants completely dead; 0%=no phytotoxic action on the plants)” value (maize (Marista); 200 g/ha) was 67.5% and the “phytotoxic action on maize (100%=plants completely dead; 0%=no phytotoxic action on the plants)” value (maize (Marista); 400 g/ha) was 62.5%.
